Laboratory results from patent publication US20260297095A1, “NOVEL PYRROLOTRIAZINE DERIVATIVE AND USE THEREOF” (Pelemed Co., Ltd., priority 2024, published 2026).

Experiments:
[1] = tested on: KYSE-70 esophageal cancer cell line; experiment: Cell growth inhibition of KYSE-70 (Sulforhodamine B); format: cell-based; conditions: Homo sapiens; KYSE-70, 72 hours; read-out: KYSE70 GI50
Description: The cell line according to the present invention was selected as KYSE-70, an esophageal cancer cell line in which YES1 is amplified. The evaluation of cell growth inhibition was performed as follows.
KYSE-70 was cultured in RPMI-1640 (Capricorn) supplemented with 10% FBS (Cellgro). The cells were seeded 24 hours prior to compound treatment, into three 96-well F-bottom clear plates (Greiner), with 7,500 cells per well in 180 μL of medium. The 10 mM compound was diluted 100-fold in medium to prepare a 100 μM compound, which was then placed into a 96-well plate and further 3-fold diluted in medium to prepare a compound plate with concentrations ranging from 0.046 μM to 100 μM. 20 μL of each compound from the drug plate was added to the cell-seeded plates to achieve final concentrations of 0.0046 μM to 10 μM. At the same time, 50 μL of 33% trichloroacetic acid was injected into one plate and the plate was fixed by incubating at 4° C. This was referred to as the Do plate. Viable cells were measured 72 hours after compound treatment by injecting 50 μL of 33% trichloroacetic acid and incubating at 4° C. for more than 1 hour to fix the cells. This was referred to as the D3 plate. After the Do plate and D3 plates were washed 5 times with sterile water, 100 μL of 0.04% Sulforhodamine B solution in 1% acetic acid was added and reacted for 1 hour to stain the cells. After staining, the plates were washed 4 times with 1% acetic acid solution and completely dried. Then, the Sulforhodamine B bound to cellular proteins was completely dissolved with 10 mM Tris base solution (pH 10.5). The absorbance was measured at a wavelength of 510 nm using a microplate reader (TECAN, sunrise microplate reader). The analysis was performed using GraphPad Prism. The average absorbance of the Do plate was set to 0%, and the average absorbance of the negative control of the D3 plate was set to 100%, from which a graph was drawn and the GI50 values were calculated. Each test was performed twice.

YES1 kinase = YES1 kinase (Homo sapiens, UniProt P07947); experiment: YES1 kinase inhibition, ADP Glo assay (Promega); format: biochemical; conditions: for YES1 kinase inhibition at 1 nM (in words) / inhibition at 0.001 µM: compound 1 nM; for inhibition at 0.001 µM: read-out: YES1 enzyme, % inhibition, 1 nM; for inhibition at 0.01 µM: compound 10 nM, read-out: YES1 enzyme, % inhibition, 10 nM; for inhibition at 0.1 µM: compound 100 nM, read-out: YES1 enzyme, % inhibition, 100 nM
Description: To evaluate the inhibitory activity against YES1 kinase of the compound according to the present invention, ADP Glo assay (Promega) was used, and the following method was performed with reference to the Promega kinase enzyme system protocol. To proceed with the experiment, buffers A-F and compound dilution plates were required.
To prepare A.4X reaction buffer, 800 μl of 5X reaction buffer and 200 μl of distilled water were used. To prepare B.4X kinase buffer, 996.6 μl of A.4X reaction buffer, 2 μl of 0.1M DTT, and 3.2 μl of 2.5M MnCl2 were added and mixed. To prepare C.1X kinase buffer (containing 5% DMSO) used for compound dilution, 250 μl of B.4X kinase buffer, 700 μl of distilled water, and 50 μl of DMSO were added, so that the final DMSO concentration became 5%. Then, 10 mM compounds were diluted 100-fold to prepare 100 μM solutions, and then D.5X inhibitor solution was prepared so that the compound concentration became 5 uM. Using a 96-well plate, 5 μM compounds were 3-fold diluted using C.1X kinase buffer (containing 5% DMSO) to prepare compound plates with concentrations ranging from 0.25 μM to 5 μM. The resulting plates were stored at room temperature. To prepare E. 2.5X ATP/substrate mixture, 50 μl of B.4X kinase buffer, 50 μl of […], and 100 μl of substrate were mixed. To prepare F YES1 kinase enzyme solution, 35 μl of B.4X kinase buffer, 0.4 μl of YES1 enzyme, and 104.6 μl of distilled water were used. Once the diluted compound plates, ATP/substrate mixture, and YES1 kinase solution were all prepared, 3 μL each was transferred from the diluted compound plate to a luciferase 96-well white plate (Since the total volume of the ATP/substrate and YES1 kinase solution that reacts with the compound is 15 μL, the compounds were diluted 5-fold, making the final compound concentration 0.05 μM-1 μM). Then, 6 μL of F. YES1 Kinase Enzyme Solution was transferred to each well, pipetted 10 times to mix, and incubated at room temperature in a shaker for 10 minutes. Next, 6 μL of E. 2.5X ATP/Substrate Mixture was transferred to each well, pipetted 10 times to mix, and centrifuged at 12,000 rpm for 5 minutes. The plate was then incubated in a shaker at room temperature for 40 minutes. After that, 15 μL of ADP-Glo Reagent, dissolved at room temperature, was added to each well, pipetted 10 times, and incubated in a shaker at room temperature for 40 minutes. Finally, 30 μL of Kinase Detection Reagent, dissolved at room temperature, was added, pipetted 10 times, incubated in a shaker at room temperature for 30 minutes. Luminescence was measured using a luminescence plate reader. Then, the background value was subtracted from all measured values, and the YES1 kinase activity at compound concentrations of 1 nM, 10 nM, and 100 nM was calculated. The measured values were calculated as percentages using the average value of the negative control. Graphs were drawn using GraphPad Prism, and the enzyme activity was calculated as a percentage of YES1 kinase inhibition at compound concentrations of 1 nM, 10 nM, and 100 nM. IC50 values were obtained using Microsoft Excel.

YES1 kinase, sequence (P07947 whole entry): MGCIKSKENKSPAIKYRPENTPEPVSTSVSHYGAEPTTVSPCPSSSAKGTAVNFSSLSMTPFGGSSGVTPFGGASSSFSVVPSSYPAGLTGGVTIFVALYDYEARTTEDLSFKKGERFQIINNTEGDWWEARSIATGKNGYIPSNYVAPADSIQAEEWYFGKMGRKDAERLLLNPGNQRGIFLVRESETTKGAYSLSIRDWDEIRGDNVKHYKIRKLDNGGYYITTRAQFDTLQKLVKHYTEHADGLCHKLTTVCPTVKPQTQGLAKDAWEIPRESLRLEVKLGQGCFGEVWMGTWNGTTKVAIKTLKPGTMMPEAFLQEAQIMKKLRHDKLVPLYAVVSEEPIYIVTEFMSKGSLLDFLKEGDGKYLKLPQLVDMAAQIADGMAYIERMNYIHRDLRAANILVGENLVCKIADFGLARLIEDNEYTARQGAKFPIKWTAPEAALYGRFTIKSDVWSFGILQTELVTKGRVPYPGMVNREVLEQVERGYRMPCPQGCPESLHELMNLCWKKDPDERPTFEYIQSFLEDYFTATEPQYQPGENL

GI50 [1] [nM] | inhibition at 0.01 µM (YES1 kinase) [%] | inhibition at 0.1 µM (YES1 kinase) [%] | IC50 (YES1 kinase; class symbols, read-out: YES1 enzyme, IC50) [nM] | SMILES | YES1 kinase inhibition at 1 nM (in words) (YES1 kinase) | inhibition at 0.001 µM (YES1 kinase) [%]
≤ 100 | 44 | 80 |  | COc1cc(-c2cc(N3CC4(CCN(C)CC4)C3)n3ncnc(N)c23)ccc1NC(=O)OC(C)(C)C [Example 38, tert-butyl (4-(4-amino-7-(7-methyl-2,7-diazaspiro[3.5]nonan-2-yl)pyrrolo[2,1-f][1,2,4]triazin-5-yl)-2-methoxyphenyl)carbamate] |  | 
≤ 100 | 43 |  |  | COc1cc(-c2cc(N3CCC(C(C)(C)N)CC3)n3ncnc(N)c23)ccc1NC(=O)OC(C)(C)C [Example 106, tert-butyl (4-(4-amino-7-(4-(2-aminopropan-2-yl)piperidin-1-yl)pyrrolo[2,1-f][1,2,4]triazin-5-yl)-2-methoxyphenyl)carbamate] |  | 37
1000 to 10000 | 30 | 69 |  | COc1cc(-c2cc(N3CCC4C(CCN4C)C3)n3ncnc(N)c23)ccc1NC(=O)OC(C)(C)C (stereo not shown) [Example 26, tert-butyl (4-(4-amino-7-(1-methyloctahydro-5H-pyrrolo[3,2-c]pyridin-5-yl)pyrrolo[2,1-f][1,2,4]triazin-5-yl)-2-methoxyphenyl)carbamate] |  | 
≤ 100 | 63 | 90 |  | COc1cc(-c2cc(N3C[C@@H]4[C@H](C3)[C@H]4N(C)C)n3ncnc(N)c23)ccc1NC(=O)OC(C)(C)C [Example 42, tert-butyl (4-(4-amino-7-((1R,5S,6s)-6-(dimethylamino)-3-azabicyclo[3.1.0]hexan-3-yl)pyrrolo[2,1-f][1,2,4]triazin-5-yl)-2-methoxyphenyl)carbamate] |  | 
> 10000 | 28 | 47 |  | COCCN1CCN(c2cc(-c3ccc(NC(=O)OC(C)(C)C)c(OC)c3)c3c(N)ncnn23)CC1 [Example 29, tert-butyl (4-(4-amino-7-(4-(2-methoxyethyl)piperazin-1-yl)pyrrolo[2,1-f][1,2,4]triazin-5-yl)-2-methoxyphenyl)carbamate] |  | 
1000 to 10000 | 59 | 74 |  | COc1cc(-c2cc(N3CCC4(CC3)CC(=O)N(C)C4)n3ncnc(N)c23)ccc1NC(=O)OC(C)(C)C [Example 27, tert-butyl (4-(4-amino-7-(2-methyl-3-oxo-2,8-diazaspiro[4.5]decan-8-yl)pyrrolo[2,1-f][1,2,4]triazin-5-yl)-2-methoxyphenyl)carbamate] |  | 
1000 to 10000 | 39 | 57 |  | COc1cc(-c2cc(-c3ccc4c(c3)oc(=O)n4C)n3ncnc(N)c23)ccc1NC(=O)OC(C)(C)C [Example 9, tert-butyl (4-(4-amino-7-(3-methyl-2-oxo-2,3-dihydrobenzo[d]oxazol-6-yl)pyrrolo[2,1-f][1,2,4]triazin-5-yl)-2-methoxyphenyl)carbamate] |  | 
100 to 1000 | 24 |  |  | COc1cc(-c2cc(N3CCC(N)(C(F)(F)F)CC3)n3ncnc(N)c23)ccc1NC(=O)OC(C)(C)C [Example 83, tert-butyl (4-(4-amino-7-(4-amino-4-(trifluoromethyl)piperidin-1-yl)pyrrolo[2,1-f][1,2,4]triazin-5-yl)-2-methoxyphenyl)carbamate] | could be inhibited even at a low concentration of 1 nM | 14
1000 to 10000 | 17 | 31 |  | COc1cc(-c2cc(-c3ccc(N(C)C)cc3)n3ncnc(N)c23)ccc1NC(=O)OC(C)(C)C [Example 1, tert-butyl (4-(4-amino-7-(4-(dimethylamino)phenyl)pyrrolo[2,1-f][1,2,4]triazin-5-yl)-2-methoxyphenyl)carbamate] |  | 
100 to 1000 | 27 | 66 |  | COc1cc(-c2cc(N3CCC(NC(C)=O)CC3)n3ncnc(N)c23)ccc1NC(=O)OC(C)(C)C [Example 103, tert-butyl (4-(7-(4-acetamidopiperidin-1-yl)-4-aminopyrrolo[2,1-f][1,2,4]triazin-5-yl)-2-methoxyphenyl)carbamate] |  | 
> 10000 | 21 | 28 |  | COc1cc(-c2cc(-c3ccc(N(C)C)cc3C)n3ncnc(N)c23)ccc1NC(=O)OC(C)(C)C [Example 2, tert-butyl (4-(4-amino-7-(4-(dimethylamino)-2-methylphenyl)pyrrolo[2,1-f][1,2,4]triazin-5-yl)-2-methoxyphenyl)carbamate] |  | 
100 to 1000 | 36 | 78 |  | COc1cc(-c2cc(N3CCC4(CCN(C)CC4)C3)n3ncnc(N)c23)ccc1NC(=O)OC(C)(C)C [Example 36, tert-butyl (4-(4-amino-7-(8-methyl-2,8-diazaspiro[4.5]decan-2-yl)pyrrolo[2,1-f][1,2,4]triazin-5-yl)-2-methoxyphenyl)carbamate] |  | 
100 to 1000 | 21 | 59 |  | COc1cc(-c2cc(N3CC(C)C(N)C(C)C3)n3ncnc(N)c23)ccc1NC(=O)OC(C)(C)C (stereo not shown) [Example 91, tert-butyl (4-(4-amino-7-(4-amino-3,5-dimethylpiperidin-1-yl)pyrrolo[2,1-f][1,2,4]triazin-5-yl)-2-methoxyphenyl)carbamate] |  | 
≤ 100 | 72 | 92 | ≤ 100 | COc1cc(-c2c(F)c(N3CCC(N(C)C)CC3)n3ncnc(N)c23)ccc1NC(=O)OC(C)(C)C [Example 128, tert-butyl (4-(4-amino-7-(4-(dimethylamino)piperidin-1-yl)-6-fluoropyrrolo[2,1-f][1,2,4]triazin-5-yl)-2-methoxyphenyl)carbamate] |  | 

SMILES | GI50 [1] [nM] | inhibition at 0.01 µM (YES1 kinase) [%] | inhibition at 0.1 µM (YES1 kinase) [%] | IC50 (YES1 kinase; class symbols, read-out: YES1 enzyme, IC50) [nM] | YES1 kinase inhibition at 1 nM (in words) (YES1 kinase) | inhibition at 0.001 µM (YES1 kinase) [%]
COc1cc(-c2cc(N3CCC(C(=O)O)CC3)n3ncnc(N)c23)ccc1NC(=O)OC(C)(C)C [Example 89, 1-(4-amino-5-(4-((tert-butoxycarbonyl)amino)-3-methoxyphenyl)pyrrolo[2,1-f][1,2,4]triazin-7-yl)piperidine-4-carboxylic acid] | > 10000 | 34 |  |  | could be inhibited even at a low concentration of 1 nM | 19
COc1cc(-c2cc(N3CCC(CC(=O)O)CC3)n3ncnc(N)c23)ccc1NC(=O)OC(C)(C)C [Example 101, 2-(1-(4-amino-5-(4-((tert-butoxycarbonyl)amino)-3-methoxyphenyl)pyrrolo[2,1-f][1,2,4]triazin-7-yl)piperidin-4-yl)acetic Acid] | > 10000 | 40 |  |  | could be inhibited even at a low concentration of 1 nM | 16
